Publication PMC7265341, “Quantifying CDK inhibitor selectivity in live cells” (Nature Communications, 2020)

Legend:
Details in all cases: 10µM
CDK9/Cyclin K = CDK9/Cyclin K (Homo sapiens, UniProt P50750); experiment: NanoBRET live-cell target engagement, NanoLuc-CDK9/Cyclin K in HEK-293; type: binding
CDK2/Cyclin E1 = CDK2/Cyclin E1 (Homo sapiens, UniProt P24941); experiment: NanoBRET live-cell target engagement, CDK2-NanoLuc/Cyclin E1 in HEK-293; type: binding
CDK12/Cyclin K = CDK12/Cyclin K (Homo sapiens, UniProt Q9NYV4); experiment: NanoBRET live-cell target engagement, CDK12-NanoLuc/Cyclin K in HEK-293; type: binding
CDK1/Cyclin E1 = CDK1/Cyclin E1 (Homo sapiens, UniProt P06493); experiment: NanoBRET live-cell target engagement, CDK1-NanoLuc/Cyclin E1 in HEK-293; type: binding
CDK14/Cyclin Y = CDK14/Cyclin Y (Homo sapiens, UniProt O94921); experiment: NanoBRET live-cell target engagement, CDK14-NanoLuc/Cyclin Y in HEK-293; type: binding
CDK17/Cyclin Y = CDK17/Cyclin Y (Homo sapiens, UniProt Q00537); experiment: NanoBRET live-cell target engagement, CDK17-NanoLuc/Cyclin Y in HEK-293; type: binding
CDK10/Cyclin L2 = CDK10/Cyclin L2 (Homo sapiens, UniProt Q15131); experiment: NanoBRET live-cell target engagement, CDK10-NanoLuc/Cyclin L2 in HEK-293
CDK16/Cyclin Y = CDK16/Cyclin Y (Homo sapiens, UniProt Q00536); experiment: NanoBRET live-cell target engagement, CDK16-NanoLuc/Cyclin Y in HEK-293; type: binding
CDK8/Cyclin C = CDK8/Cyclin C (Homo sapiens, UniProt P49336); experiment: NanoBRET live-cell target engagement, NanoLuc-CDK8/Cyclin C in HEK-293; type: binding
CDK13/Cyclin K = CDK13/Cyclin K (Homo sapiens, UniProt Q14004); experiment: NanoBRET live-cell target engagement, CDK13-NanoLuc/Cyclin K in HEK-293; type: binding
CDK19/Cyclin C = CDK19/Cyclin C (Homo sapiens, UniProt Q9BWU1); experiment: NanoBRET live-cell target engagement, NanoLuc-CDK19/Cyclin C in HEK-293
CDK18/Cyclin Y = CDK18/Cyclin Y (Homo sapiens, UniProt Q07002); experiment: NanoBRET live-cell target engagement, CDK18-NanoLuc/Cyclin Y in HEK-293; type: binding
CDK6/Cyclin D1 = CDK6/Cyclin D1 (Homo sapiens, UniProt Q00534); experiment: NanoBRET live-cell target engagement, NanoLuc-CDK6/Cyclin D1 in HEK-293; type: binding
CDK4/Cyclin D1 = CDK4/Cyclin D1 (Homo sapiens, UniProt P11802); experiment: NanoBRET live-cell target engagement, NanoLuc-CDK4/Cyclin D1 in HEK-293; type: binding
CDK7 = CDK7 (Homo sapiens, UniProt P50613); experiment: NanoBRET live-cell target engagement, NanoLuc-CDK7 in HEK-293; type: binding
CDK5/CDK5R1 = CDK5/CDK5R1 (Homo sapiens, UniProt Q00535); experiment: NanoBRET live-cell target engagement, CDK5-NanoLuc/CDK5R1 in HEK-293; type: binding
CDK3/Cyclin E1 = CDK3/Cyclin E1 (Homo sapiens, UniProt Q00526); experiment: NanoBRET live-cell target engagement, CDK3-NanoLuc/Cyclin E1 in HEK-293; type: binding
CDK15/Cyclin Y = CDK15/Cyclin Y (Homo sapiens, UniProt Q96Q40); experiment: NanoBRET live-cell target engagement, NanoLuc-CDK15/Cyclin Y in HEK-293; type: binding
CDK11B/Cyclin L2 = CDK11B/Cyclin L2 (Homo sapiens, UniProt P21127); experiment: NanoBRET live-cell target engagement, CDK11B-NanoLuc/Cyclin L2 in HEK-293; type: binding
CDK20/Cyclin H = CDK20/Cyclin H (Homo sapiens, UniProt Q8IZL9); experiment: NanoBRET live-cell target engagement, NanoLuc-CDK20/Cyclin H in HEK-293; type: binding
CDK11A/Cyclin L2 = biological target: T1, CDK11A/Cyclin L2 (Homo sapiens, UniProt Q9UQ88); experiment: NanoBRET live-cell target engagement, CDK11A-NanoLuc/Cyclin L2 in HEK-293; type: binding
T1 sequence (Q9UQ88 1-783): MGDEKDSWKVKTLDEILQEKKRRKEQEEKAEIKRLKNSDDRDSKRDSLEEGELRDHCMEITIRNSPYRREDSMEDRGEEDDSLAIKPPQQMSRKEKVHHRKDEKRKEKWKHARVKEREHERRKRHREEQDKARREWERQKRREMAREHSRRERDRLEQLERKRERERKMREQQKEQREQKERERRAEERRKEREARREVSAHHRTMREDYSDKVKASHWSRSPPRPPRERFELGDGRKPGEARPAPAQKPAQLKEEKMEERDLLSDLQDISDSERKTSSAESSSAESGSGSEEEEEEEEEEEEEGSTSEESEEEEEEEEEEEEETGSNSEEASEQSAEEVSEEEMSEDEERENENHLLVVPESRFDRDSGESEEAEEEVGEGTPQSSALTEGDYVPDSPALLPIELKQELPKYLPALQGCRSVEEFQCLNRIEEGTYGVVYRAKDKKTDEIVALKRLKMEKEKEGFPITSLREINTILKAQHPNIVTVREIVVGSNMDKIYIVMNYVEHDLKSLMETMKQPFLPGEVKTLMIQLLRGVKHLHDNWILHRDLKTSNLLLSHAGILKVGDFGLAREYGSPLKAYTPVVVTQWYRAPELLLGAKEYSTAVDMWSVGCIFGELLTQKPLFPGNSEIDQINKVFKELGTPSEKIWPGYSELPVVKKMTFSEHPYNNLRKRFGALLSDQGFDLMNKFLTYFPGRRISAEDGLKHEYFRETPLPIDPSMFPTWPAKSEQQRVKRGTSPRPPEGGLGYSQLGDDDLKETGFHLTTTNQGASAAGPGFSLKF

Sequence of CDK3/Cyclin E1 (Q00526 whole entry): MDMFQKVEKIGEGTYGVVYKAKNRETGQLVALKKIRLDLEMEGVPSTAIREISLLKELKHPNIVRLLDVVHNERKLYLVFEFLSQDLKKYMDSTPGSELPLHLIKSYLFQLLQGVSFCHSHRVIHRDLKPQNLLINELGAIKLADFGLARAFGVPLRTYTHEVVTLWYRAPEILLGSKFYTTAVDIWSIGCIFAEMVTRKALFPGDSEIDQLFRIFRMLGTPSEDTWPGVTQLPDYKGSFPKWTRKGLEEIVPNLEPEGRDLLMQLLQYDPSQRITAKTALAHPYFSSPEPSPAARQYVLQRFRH
Sequence of CDK3/Cyclin E1 (P24864 whole entry partner): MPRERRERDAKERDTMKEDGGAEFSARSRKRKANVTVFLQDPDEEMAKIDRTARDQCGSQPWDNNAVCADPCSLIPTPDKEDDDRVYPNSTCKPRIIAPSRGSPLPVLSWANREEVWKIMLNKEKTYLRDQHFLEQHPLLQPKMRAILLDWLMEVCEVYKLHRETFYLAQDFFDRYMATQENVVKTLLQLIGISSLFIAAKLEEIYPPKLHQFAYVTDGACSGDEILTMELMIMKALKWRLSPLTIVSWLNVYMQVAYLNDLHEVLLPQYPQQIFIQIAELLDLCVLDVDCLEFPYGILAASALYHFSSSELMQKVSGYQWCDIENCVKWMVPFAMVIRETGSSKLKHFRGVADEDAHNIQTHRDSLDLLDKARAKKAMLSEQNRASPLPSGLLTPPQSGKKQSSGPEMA
Sequence of CDK13/Cyclin K (O75909 whole entry): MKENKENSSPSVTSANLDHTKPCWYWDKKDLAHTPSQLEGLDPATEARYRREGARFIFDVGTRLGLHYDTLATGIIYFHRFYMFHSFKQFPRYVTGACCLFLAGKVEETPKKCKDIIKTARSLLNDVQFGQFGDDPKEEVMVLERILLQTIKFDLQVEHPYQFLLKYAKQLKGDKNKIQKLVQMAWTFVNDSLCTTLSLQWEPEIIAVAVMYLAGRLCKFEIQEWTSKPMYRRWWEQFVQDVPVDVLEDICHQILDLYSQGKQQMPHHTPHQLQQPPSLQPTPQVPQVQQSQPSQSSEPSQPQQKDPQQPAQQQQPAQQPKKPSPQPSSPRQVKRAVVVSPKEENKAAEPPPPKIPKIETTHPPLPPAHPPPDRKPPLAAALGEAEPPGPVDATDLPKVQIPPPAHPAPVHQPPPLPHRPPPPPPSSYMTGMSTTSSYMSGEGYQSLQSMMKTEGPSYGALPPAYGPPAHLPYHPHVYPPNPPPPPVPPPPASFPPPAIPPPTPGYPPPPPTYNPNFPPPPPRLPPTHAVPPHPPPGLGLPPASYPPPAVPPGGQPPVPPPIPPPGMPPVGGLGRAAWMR
Sequence of CDK13/Cyclin K (Q14004 other isoform, or with tags, fused parts or gaps): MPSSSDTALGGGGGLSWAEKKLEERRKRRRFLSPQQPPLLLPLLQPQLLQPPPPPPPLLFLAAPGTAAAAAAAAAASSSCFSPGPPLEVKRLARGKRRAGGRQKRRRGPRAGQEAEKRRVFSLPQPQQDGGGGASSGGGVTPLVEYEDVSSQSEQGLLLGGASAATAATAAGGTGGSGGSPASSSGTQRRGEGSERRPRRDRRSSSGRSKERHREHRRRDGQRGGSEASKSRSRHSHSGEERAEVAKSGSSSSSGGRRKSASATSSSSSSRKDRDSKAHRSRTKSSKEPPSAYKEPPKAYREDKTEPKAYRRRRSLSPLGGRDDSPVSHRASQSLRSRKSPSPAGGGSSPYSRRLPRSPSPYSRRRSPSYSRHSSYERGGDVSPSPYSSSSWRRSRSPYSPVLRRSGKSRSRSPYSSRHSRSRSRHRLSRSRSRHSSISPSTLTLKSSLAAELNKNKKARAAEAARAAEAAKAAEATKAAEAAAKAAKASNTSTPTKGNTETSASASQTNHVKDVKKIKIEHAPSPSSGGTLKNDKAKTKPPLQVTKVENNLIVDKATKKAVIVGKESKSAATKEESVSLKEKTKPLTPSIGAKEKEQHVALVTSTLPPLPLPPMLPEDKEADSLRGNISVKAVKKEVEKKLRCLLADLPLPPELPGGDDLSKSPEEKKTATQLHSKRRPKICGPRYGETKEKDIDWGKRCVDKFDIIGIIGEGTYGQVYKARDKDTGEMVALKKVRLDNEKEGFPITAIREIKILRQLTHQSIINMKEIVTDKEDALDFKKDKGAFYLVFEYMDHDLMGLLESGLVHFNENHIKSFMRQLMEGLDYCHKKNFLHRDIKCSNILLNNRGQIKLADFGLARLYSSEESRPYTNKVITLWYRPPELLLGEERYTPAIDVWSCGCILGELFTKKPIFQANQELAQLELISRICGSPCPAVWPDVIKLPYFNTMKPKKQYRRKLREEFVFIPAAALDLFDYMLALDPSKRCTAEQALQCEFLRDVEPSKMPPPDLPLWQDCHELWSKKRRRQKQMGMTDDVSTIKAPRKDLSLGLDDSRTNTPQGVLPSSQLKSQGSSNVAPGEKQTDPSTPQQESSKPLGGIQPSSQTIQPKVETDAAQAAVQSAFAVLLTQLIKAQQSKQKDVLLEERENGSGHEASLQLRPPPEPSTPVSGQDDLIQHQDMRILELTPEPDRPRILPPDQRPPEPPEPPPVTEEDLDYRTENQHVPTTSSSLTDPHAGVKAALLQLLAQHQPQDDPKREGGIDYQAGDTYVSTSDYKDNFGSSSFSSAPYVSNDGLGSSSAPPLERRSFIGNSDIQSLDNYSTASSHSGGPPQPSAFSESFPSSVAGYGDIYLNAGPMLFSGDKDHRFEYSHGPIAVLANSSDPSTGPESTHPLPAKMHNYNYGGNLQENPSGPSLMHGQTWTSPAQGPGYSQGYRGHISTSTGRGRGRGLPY
Sequence of CDK6/Cyclin D1 (Q00534 whole entry): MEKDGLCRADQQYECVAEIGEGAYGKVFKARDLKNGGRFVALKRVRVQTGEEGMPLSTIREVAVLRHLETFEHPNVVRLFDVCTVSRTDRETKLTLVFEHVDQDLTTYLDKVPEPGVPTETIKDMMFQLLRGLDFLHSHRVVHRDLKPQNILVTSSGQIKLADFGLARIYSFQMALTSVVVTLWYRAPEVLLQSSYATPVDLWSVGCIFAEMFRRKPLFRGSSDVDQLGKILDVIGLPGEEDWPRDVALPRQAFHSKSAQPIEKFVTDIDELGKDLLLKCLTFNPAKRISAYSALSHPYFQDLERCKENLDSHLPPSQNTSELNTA
Sequence of CDK6/Cyclin D1 (P24385 whole entry partner): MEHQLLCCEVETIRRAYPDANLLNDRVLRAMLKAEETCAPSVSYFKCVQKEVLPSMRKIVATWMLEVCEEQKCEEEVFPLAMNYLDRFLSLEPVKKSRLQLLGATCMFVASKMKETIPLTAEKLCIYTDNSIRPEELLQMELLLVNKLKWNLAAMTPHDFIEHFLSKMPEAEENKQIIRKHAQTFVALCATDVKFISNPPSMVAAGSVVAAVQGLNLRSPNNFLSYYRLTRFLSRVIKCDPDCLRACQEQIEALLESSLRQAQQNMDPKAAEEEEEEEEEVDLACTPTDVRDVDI
Sequence of CDK15/Cyclin Y (Q96Q40 whole entry): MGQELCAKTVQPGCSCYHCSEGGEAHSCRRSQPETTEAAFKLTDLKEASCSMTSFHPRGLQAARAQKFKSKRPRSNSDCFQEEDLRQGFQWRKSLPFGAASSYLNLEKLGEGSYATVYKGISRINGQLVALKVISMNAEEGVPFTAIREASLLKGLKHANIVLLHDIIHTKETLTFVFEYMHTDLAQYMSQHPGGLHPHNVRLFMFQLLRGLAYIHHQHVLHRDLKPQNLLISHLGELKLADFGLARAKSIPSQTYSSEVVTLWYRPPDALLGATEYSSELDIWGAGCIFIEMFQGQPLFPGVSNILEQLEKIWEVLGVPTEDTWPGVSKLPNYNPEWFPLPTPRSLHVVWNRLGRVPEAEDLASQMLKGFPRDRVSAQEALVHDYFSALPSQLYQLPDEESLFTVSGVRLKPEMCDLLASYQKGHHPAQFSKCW
Sequence of CDK15/Cyclin Y (Q8ND76 whole entry partner): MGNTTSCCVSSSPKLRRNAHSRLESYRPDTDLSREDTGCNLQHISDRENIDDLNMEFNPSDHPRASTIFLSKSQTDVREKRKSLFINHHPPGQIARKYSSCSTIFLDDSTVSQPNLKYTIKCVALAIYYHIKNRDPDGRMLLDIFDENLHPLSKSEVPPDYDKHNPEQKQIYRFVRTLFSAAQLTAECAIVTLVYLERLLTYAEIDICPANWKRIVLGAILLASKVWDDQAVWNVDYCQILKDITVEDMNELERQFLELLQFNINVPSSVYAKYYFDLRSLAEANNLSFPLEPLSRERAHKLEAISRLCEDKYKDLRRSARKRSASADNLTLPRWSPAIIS
Sequence of CDK18/Cyclin Y (Q07002 whole entry): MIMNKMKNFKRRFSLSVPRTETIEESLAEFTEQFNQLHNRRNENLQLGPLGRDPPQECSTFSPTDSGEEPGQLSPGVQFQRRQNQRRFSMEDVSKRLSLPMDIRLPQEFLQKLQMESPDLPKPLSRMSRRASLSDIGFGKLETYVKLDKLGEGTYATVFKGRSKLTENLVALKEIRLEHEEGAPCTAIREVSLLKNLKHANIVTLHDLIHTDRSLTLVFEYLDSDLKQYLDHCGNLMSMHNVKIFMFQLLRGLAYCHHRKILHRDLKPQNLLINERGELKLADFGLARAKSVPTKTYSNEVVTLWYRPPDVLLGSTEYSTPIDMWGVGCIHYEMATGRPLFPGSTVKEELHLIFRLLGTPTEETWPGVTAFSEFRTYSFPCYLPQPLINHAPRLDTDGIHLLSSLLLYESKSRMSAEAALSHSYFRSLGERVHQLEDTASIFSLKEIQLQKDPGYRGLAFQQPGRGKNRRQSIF
Sequence of CDK18/Cyclin Y (Q8ND76 whole entry partner): as the sequence (Q8ND76 whole entry partner) above

Compound: O=C1NCCc2[nH]c(-c3ccncc3)cc21 [PHA-767491]
- CDK9/K Inhibition at 10µM (%) (CDK9/Cyclin K; average of experiments): 95.5%
- CDK9/K Inhibition at 10µM (%) (CDK9/Cyclin K; independent experiment 1): 96.2%
- CDK9/K Inhibition at 10µM (%) (CDK9/Cyclin K; independent experiment 2): 94.7%
- CDK2/E1 Inhibition at 10µM (%) (CDK2/Cyclin E1; average of experiments): 26.7%
- CDK2/E1 Inhibition at 10µM (%) (CDK2/Cyclin E1; independent experiment 1): 26.7%
- CDK2/E1 Inhibition at 10µM (%) (CDK2/Cyclin E1; independent experiment 2): 26.6%
- CDK12/K Inhibition at 10µM (%) (CDK12/Cyclin K; average of experiments): 18.3%
- CDK12/K Inhibition at 10µM (%) (CDK12/Cyclin K; independent experiment 1): 19.8%
- CDK12/K Inhibition at 10µM (%) (CDK12/Cyclin K; independent experiment 2): 16.8%
- CDK1/E1 Inhibition at 10µM (%) (CDK1/Cyclin E1; average of experiments): 20.9%
- CDK1/E1 Inhibition at 10µM (%) (CDK1/Cyclin E1; independent experiment 1): 21.6%
- CDK1/E1 Inhibition at 10µM (%) (CDK1/Cyclin E1; independent experiment 2): 20.1%
- CDK14/Y Inhibition at 10µM (%) (CDK14/Cyclin Y; average of experiments): 13.9%
- CDK14/Y Inhibition at 10µM (%) (CDK14/Cyclin Y; independent experiment 1): 16.7%
- CDK14/Y Inhibition at 10µM (%) (CDK14/Cyclin Y; independent experiment 2): 11.1%
- CDK17/Y Inhibition at 10µM (%) (CDK17/Cyclin Y; average of experiments): 24.8%
- CDK17/Y Inhibition at 10µM (%) (CDK17/Cyclin Y; independent experiment 1): 31.6%
- CDK17/Y Inhibition at 10µM (%) (CDK17/Cyclin Y; independent experiment 2): 18.1%
- CDK10/L2 Inhibition at 10µM (%) (CDK10/Cyclin L2; average of experiments): 11.0%
- CDK10/L2 Inhibition at 10µM (%) (CDK10/Cyclin L2; independent experiment 1): 18.5%
- CDK10/L2 Inhibition at 10µM (%) (CDK10/Cyclin L2; independent experiment 2): 3.5%
- CDK16/Y Inhibition at 10µM (%) (CDK16/Cyclin Y; independent experiment 1): 25.1%
- CDK16/Y Inhibition at 10µM (%) (CDK16/Cyclin Y; independent experiment 2): 16.6%
- CDK8/C Inhibition at 10µM (%) (CDK8/Cyclin C; average of experiments): 97.7%
- CDK8/C Inhibition at 10µM (%) (CDK8/Cyclin C; independent experiment 1): 98.5%
- CDK8/C Inhibition at 10µM (%) (CDK8/Cyclin C; independent experiment 2): 96.9%
- CDK13/K Inhibition at 10µM (%) (CDK13/Cyclin K; average of experiments): 11.6%
- CDK13/K Inhibition at 10µM (%) (CDK13/Cyclin K; independent experiment 1): 14.1%
- CDK13/K Inhibition at 10µM (%) (CDK13/Cyclin K; independent experiment 2): 9.2%
- CDK19/C Inhibition at 10µM (%) (CDK19/Cyclin C; average of experiments): 90.8%
- CDK19/C Inhibition at 10µM (%) (CDK19/Cyclin C; independent experiment 1): 91.1%
- CDK19/C Inhibition at 10µM (%) (CDK19/Cyclin C; independent experiment 2): 90.5%
- CDK18/Y Inhibition at 10µM (%) (CDK18/Cyclin Y; average of experiments): 28.3%
- CDK18/Y Inhibition at 10µM (%) (CDK18/Cyclin Y; independent experiment 1): 21.8%
- CDK18/Y Inhibition at 10µM (%) (CDK18/Cyclin Y; independent experiment 2): 34.7%
- CDK6/D1 Inhibition at 10µM (%) (CDK6/Cyclin D1; average of experiments): 19.5%
- CDK6/D1 Inhibition at 10µM (%) (CDK6/Cyclin D1; independent experiment 1): 12.0%
- CDK6/D1 Inhibition at 10µM (%) (CDK6/Cyclin D1; independent experiment 2): 27.0%
- CDK4/D1 Inhibition at 10µM (%) (CDK4/Cyclin D1; average of experiments): 21.3%
- CDK4/D1 Inhibition at 10µM (%) (CDK4/Cyclin D1; independent experiment 1): 22.1%
- CDK4/D1 Inhibition at 10µM (%) (CDK4/Cyclin D1; independent experiment 2): 20.6%
- CDK7 Inhibition at 10µM (%) (CDK7; average of experiments): 26.3%
- CDK7 Inhibition at 10µM (%) (CDK7; independent experiment 1): 26.2%
- CDK7 Inhibition at 10µM (%) (CDK7; independent experiment 2): 26.4%
- CDK5/CDK5R1 Inhibition at 10µM (%) (CDK5/CDK5R1; average of experiments): 37.1%
- CDK5/CDK5R1 Inhibition at 10µM (%) (CDK5/CDK5R1; independent experiment 1): 38.6%
- CDK5/CDK5R1 Inhibition at 10µM (%) (CDK5/CDK5R1; independent experiment 2): 35.7%
- CDK3/E1 Inhibition at 10µM (%) (CDK3/Cyclin E1; average of experiments): 31.6%
- CDK3/E1 Inhibition at 10µM (%) (CDK3/Cyclin E1; independent experiment 1): 30.4%
- CDK3/E1 Inhibition at 10µM (%) (CDK3/Cyclin E1; independent experiment 2): 32.8%
- CDK15/Y Inhibition at 10µM (%) (CDK15/Cyclin Y; average of experiments): -2.1%
- CDK15/Y Inhibition at 10µM (%) (CDK15/Cyclin Y; independent experiment 1): 6.2%
- CDK15/Y Inhibition at 10µM (%) (CDK15/Cyclin Y; independent experiment 2): -10.5%
- CDK11b/L2 Inhibition at 10µM (%) (CDK11B/Cyclin L2; average of experiments): 42.2%
- CDK11b/L2 Inhibition at 10µM (%) (CDK11B/Cyclin L2; independent experiment 1): 43.3%
- CDK11b/L2 Inhibition at 10µM (%) (CDK11B/Cyclin L2; independent experiment 2): 41.0%
- CDK20/H Inhibition at 10µM (%) (CDK20/Cyclin H; independent experiment 1): 1.2%
- CDK20/H Inhibition at 10µM (%) (CDK20/Cyclin H; independent experiment 2): 0.755%
- CDK11a/L2 Inhibition at 10µM (%) (CDK11A/Cyclin L2; average of experiments): 24.0%
- CDK11a/L2 Inhibition at 10µM (%) (CDK11A/Cyclin L2; independent experiment 1): 26.5%
- CDK11a/L2 Inhibition at 10µM (%) (CDK11A/Cyclin L2; independent experiment 2): 21.5%
